Measured values: patent US11161856B2 (H. Lundbeck A/S, priority 2017, dated 2021)
pIC50: −log10 of the molar value. Read-outs that look alike come from different tables or passages of the source.

Experiments:
Type in all cases: biochemical
[1] = target: T1, ABHD6 (Mus musculus, UniProt Q8R2Y0); assay: In vitro competitive activity-based protein profiling, mouse brain proteome (ABHD6); settings: mouse brain proteome; concentration not given (μM)
T1 construct: Brain; from tissue; host or cells: mouse brain proteome
T1 sequence (Q8R2Y0 1-336): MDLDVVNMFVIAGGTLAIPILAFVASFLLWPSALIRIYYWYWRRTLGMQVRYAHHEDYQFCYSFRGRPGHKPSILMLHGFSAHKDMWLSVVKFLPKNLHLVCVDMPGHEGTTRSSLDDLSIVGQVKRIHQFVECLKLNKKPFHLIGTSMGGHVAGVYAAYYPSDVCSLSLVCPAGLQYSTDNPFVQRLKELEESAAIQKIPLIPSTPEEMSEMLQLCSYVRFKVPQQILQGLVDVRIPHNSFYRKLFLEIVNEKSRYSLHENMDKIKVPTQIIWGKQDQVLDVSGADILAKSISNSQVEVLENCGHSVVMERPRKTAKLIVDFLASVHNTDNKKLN
Protocol: [The source words this procedure for another target and reports this target under the same test.] In Vitro Competitive Activity-Based Protein Profiling.
Proteomes (human prefrontal cortex or cell membrane fractions) (50 μL, 1.0 mg/mL total protein concentration) were preincubated with varying concentrations of inhibitors at 37° C. After 30 min, FP-Rh or HT-01 (1.0 μL, 50 μM in DMSO) was added and the mixture was incubated for another 30 min at room temperature. Reactions were quenched with SDS loading buffer (15 μL-4×) and run on SDS-PAGE.

[2] = target: T2, MAGL (Homo sapiens, UniProt Q99685); assay: In vitro competitive activity-based protein profiling (FP-Rh or HT-01 probe, gel-based); settings: for % Inh MGLL PFC (Human, μM) / % Inh MGLL PC3 (Human, μM): concentration not given (μM)
T2 construct: Proteomes (human prefrontal cortex or cell membrane fractions); from tissue
T2 sequence (Q99685 1-303): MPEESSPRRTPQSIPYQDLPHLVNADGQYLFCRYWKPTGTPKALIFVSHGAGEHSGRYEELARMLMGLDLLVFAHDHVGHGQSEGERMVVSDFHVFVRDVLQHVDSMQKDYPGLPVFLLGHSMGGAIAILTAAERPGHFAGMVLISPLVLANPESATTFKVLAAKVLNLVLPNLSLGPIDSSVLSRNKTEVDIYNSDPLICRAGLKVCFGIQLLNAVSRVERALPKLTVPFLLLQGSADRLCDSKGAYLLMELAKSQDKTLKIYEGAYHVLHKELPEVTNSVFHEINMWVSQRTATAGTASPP
Method in brief: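 Human prefrontal cortex or cell membrane proteomes (1.0 mg/mL total protein) were preincubated with varying inhibitor concentrations for 30 min at 37° C. FP-Rh or HT-01 probe (50 μM DMSO stock) was then added for 30 min at room temperature, and samples were quenched in SDS loading buffer and resolved by SDS-PAGE.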

[3] = target: T3, MGLL (Mus musculus, UniProt O35678); assay: In vitro competitive activity-based protein profiling, mouse brain proteome (MGLL); settings: concentration not given (μM)
T3 construct: Brain; from tissue; host or cells: mouse brain proteome
T3 sequence (O35678 1-303): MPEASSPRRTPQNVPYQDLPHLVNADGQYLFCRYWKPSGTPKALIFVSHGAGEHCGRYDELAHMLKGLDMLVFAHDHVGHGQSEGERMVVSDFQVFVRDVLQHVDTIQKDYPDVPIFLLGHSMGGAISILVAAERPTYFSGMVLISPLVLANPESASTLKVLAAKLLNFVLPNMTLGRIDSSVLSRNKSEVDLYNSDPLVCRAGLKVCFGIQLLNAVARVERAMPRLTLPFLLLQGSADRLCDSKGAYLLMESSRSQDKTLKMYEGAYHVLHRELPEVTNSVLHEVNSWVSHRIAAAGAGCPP

[4] = prefrontal cortex (PFC) proteome
[5] = PC3 cell proteome, read-out: IC50 MGLL PC3 (Human)

% Inh ABHD6 Brain (Mouse, μM) [1] | % Inh MGLL PFC (Human, μM) [2, 4] | % Inh MGLL Brain (Mouse, μM) [3] | % Inh MGLL PC3 (Human, μM) ([2]; PC3 cell proteome) | pIC50 ([2]; prefrontal cortex (PFC) proteome, read-out: IC50 MGLL PFC (Human)) | pIC50 [2, 5] | SMILES
### (### is ≥75%) | ## (## is between 25 and 75%) | # (# is ≤25%) |  |  |  | O=C(OC(C(F)(F)F)C(F)(F)F)N1CC2(CCN(Cc3ccc(C(F)(F)F)cc3N3CCCC3)CC2)C1 [Example 150, 1,1,1,3,3,3-Hexafluoropropan-2-yl 7-(2-(pyrrolidin-1-yl)-4-(trifluoromethyl)benzyl)-2,7-diazaspiro[3.5]nonane-2-carboxylate]
# (# is ≤25%) | ### (### is ≥75%) | ### (### is ≥75%) |  |  |  | O=C(O)CN1CCC2(CCN(c3cc(C(F)(F)F)ccc3CN3CCCC34CCN(C(=O)OC(C(F)(F)F)C(F)(F)F)CC4)CC2)C1 [Example 153, 2-(8-(2-((8-(((1,1,1,3,3,3-Hexafluoropropan-2-yl)oxy)carbonyl)-1,8-diazaspiro[4.5]decan-1-yl)methyl)-5-(trifluoromethyl)phenyl)-2,8-diazaspiro[4.5]decan-2-yl)acetic acid]
# (# is ≤25%) | ### (### is ≥75%) | ### (### is ≥75%) |  |  |  | O=C(O)CN1CCC2(CC1)CCN(c1cc(C(F)(F)F)ccc1CN1CCCC13CCN(C(=O)OC(C(F)(F)F)C(F)(F)F)CC3)C2 [Example 154, 2-(2-(2-((8-(((1,1,1,3,3,3-Hexafluoropropan-2-yl)oxy)carbonyl)-1,8-diazaspiro[4.5]decan-1-yl)methyl)-5-(trifluoromethyl)phenyl)-2,1-diazaspiro[4.5]decan-8-yl)acetic acid]
# (# is ≤25%) | ### (### is ≥75%) | ### (### is ≥75%) |  |  |  | O=C(O)CN1CC2CN(c3cc(C(F)(F)F)ccc3CN3CCCC34CCN(C(=O)OC(C(F)(F)F)C(F)(F)F)CC4)CC2C1 (stereo not drawn) [Example 155]
# (# is ≤25%) | ### (### is ≥75%) | ### (### is ≥75%) |  |  |  | O=C(O)CN1CCC2(CC1)CN(c1cc(C(F)(F)F)ccc1CN1CCCC13CCN(C(=O)OC(C(F)(F)F)C(F)(F)F)CC3)C2 [Example 156, 2-(2-(2-((8-(((1,1,1,3,3,3-Hexafluoropropan-2-yl)oxy)carbonyl)-1,8-diazaspiro[4.5]decan-1-yl)methyl)-5-(trifluoromethyl)phenyl)-2,7-diazaspiro[3.5]nonan-7-yl)acetic acid]
# (# is ≤25%) | ### (### is ≥75%) | ### (### is ≥75%) |  |  |  | O=C(O)CN1CC2(CCN(c3cc(C(F)(F)F)ccc3CN3CCCC34CCN(C(=O)OC(C(F)(F)F)C(F)(F)F)CC4)CC2)C1 [Example 157, 2-(7-(2-((8-(((1,1,1,3,3,3-Hexafluoropropan-2-yl)oxy)carbonyl)-1,8-diazaspiro[4.5]decan-1-yl)methyl)-5-(trifluoromethyl)phenyl)-2,7-diazaspiro[3.5]nonan-2-yl)acetic acid]
# (# is ≤25%) | ### (### is ≥75%) | ### (### is ≥75%) |  |  |  | O=C(O)CN1CC2(CCN(c3cc(CN4CCCC45CCN(C(=O)OC(C(F)(F)F)C(F)(F)F)CC5)cc(C(F)(F)F)c3)CC2)C1 [Example 158, 2-(7-(3-((8-(((1,1,1,3,3,3-Hexafluoropropan-2-yl)oxy)carbonyl)-1,8-diazaspiro[4.5]decan-1-yl)methyl)-5-(trifluoromethyl)phenyl)-2,7-diazaspiro[3,5]nonan-2-yl)acetic acid]
# (# is ≤25%) |  | ### (### is ≥75%) | ### (### is ≥75%) | > 7.00 |  | O=C(O)C1CCCN1C1CCN(c2cc(C(F)(F)F)ccc2CN2CCCC23CCN(C(=O)OC(C(F)(F)F)C(F)(F)F)CC3)CC1 (stereo not drawn) [Example 159]
# (# is ≤25%) |  | ### (### is ≥75%) | ### (### is ≥75%) |  | > 7.00 | O=C(O)[C@H]1CCCN1C1CCN(c2cc(C(F)(F)F)ccc2CN2CCCC23CCN(C(=O)OC(C(F)(F)F)C(F)(F)F)CC3)CC1 [Example 160, (1-(2-((8-(((1,1,1,3,3,3-Hexafluoropropan-2-yl)oxy)carbonyl)-1,8-diazaspiro[4.5]decan-l-yl)methyl)-5-(trifluoromethyl)phenyl)piperidin-4-yl)-D-proline]
### (### is ≥75%) |  | ### (### is ≥75%) | ### (### is ≥75%) |  | > 7.00 | CN(Cc1ccc(C(F)(F)F)cc1N1CCC(N2CCC[C@H]2C(=O)O)CC1)C1(C)CCN(C(=O)OC(C(F)(F)F)C(F)(F)F)CC1 [Example 161, (1-(2-(((1-(((1,1,1,3,3,3-Hexafluoropropan-2-yl)oxy)carbonyl)-4-methylpiperidin-4-yl)(methyl)ainino)methyl)-5-(trifluoromethyl)phenyl)piperidin-4-yl)proline]
# (# is ≤25%) |  | ### (### is ≥75%) | ### (### is ≥75%) |  | > 7.00 | CN(Cc1ccc(C(F)(F)F)cc1N1CCC(N2CCC[C@@H]2C(=O)O)CC1)C1(C)CCN(C(=O)OC(C(F)(F)F)C(F)(F)F)CC1 [Example 162, (1-(2-(((1-(((1,1,1,3,3,3-Hexafluoropropan-2-yl)oxy)carbonyl)-4-methylpiperidin-4-yl)(methyl)amino)methyl)-5-(trifluoromethyl)phenyl)piperidin-4-yl)-D-proline]
# (# is ≤25%) |  | ### (### is ≥75%) | ### (### is ≥75%) |  | > 7.00 | CN(Cc1ccc(C(F)(F)F)cc1N1CCC(N2CCC[C@H]2C(=O)O)CC1)C1(C)CCN(C(=O)OC(C(F)(F)F)C(F)(F)F)CC1 [Example 163, (1-(2-(((1-(((1,1,1,3,3,3-Hexafluoropropan-2-yl)oxy)carbonyl)-4-methylpiperidin-4-yl)(methyl)amino)methyl)-5-(trifluoromethyl)phenyl)piperidin-4-yl)-L-proline]
# (# is ≤25%) |  | ### (### is ≥75%) | ### (### is ≥75%) |  | > 7.00 | O=C(O)[C@@H]1CCCN1C1CCN(c2cc(C(F)(F)F)ccc2CN2CCCC23CCN(C(=O)OC(C(F)(F)F)C(F)(F)F)CC3)CC1 [Example 164, (1-(2-((8-(((1,1,1,3,3,3-Hexafluoropropan-2-yl)oxy)carbonyl)-1,8-diazaspiro[4.5]decan-1-yl)methyl)-5-(trifluoromethyl)phenyl)piperidin-4-yl)-L-proline]
# (# is ≤25%) | ### (### is ≥75%) | ### (### is ≥75%) |  |  |  | O=C(O)C1CCN(c2c(Cl)cccc2CN2CCC3(CC2)CCN(C(=O)OC(C(F)(F)F)C(F)(F)F)C3)CC1 [Example 218, l-(2-Chloro-6-{(2-(((1,1,1,3,3,3-hexafluoropropan-2-yl)oxy)carbonyl)-2,8-diazaspiro[4.5]decan-8-yl)methyl)phenyl)piperidine-4-carboxylic acid]
### (### is ≥75%) | ### (### is ≥75%) | ## (## is between 25 and 75%) |  |  |  | O=C(O)C1CCN(c2ccc(CN3CCC4(CC3)CCN(C(=O)OC(C(F)(F)F)C(F)(F)F)C4)cc2C(F)(F)F)CC1 [Example 219, l-(4-((2-(((1,1,1,3,3,3-Hexafluoropropan-2-yl)oxy)carbonyl)-2,8-diazaspiro[4.5]decan-8-yl)methyl)-2-(trifluoromethyl)phenyl) piperidine-4-carboxylic acid]
